Holding throughout (assay type): cell-based, mouse
Assay [1] deals with α7 integrin (LacZ reporter in α7+/LacZ myotubes). Description: Myotube α7 integrin FDG assay (Burkin assay in myotubes, 96-well). To be noted: for Burkin Assay in Myotubes, value relative to DMSO: SU9516 analogs, 96-well, N=3-6.
Assay [2] deals with β-galactosidase in CMV-LacZ C2C12 myoblasts. Description: CMV-LacZ secondary screen in C2C12 myoblasts (β-Gal stabilizing assay). To be noted: for CMV-LACZ in Myoblasts (β-galactosidase activity relative to DMSO): CMV-LacZ C2C12 myoblasts; for CMV-LACZ in Myoblasts, value relative to DMSO: SU9516 analogs, C2C12 CMV-LacZ, N=2. In short, it runs like this:
(§1)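 β-gal stabilization was measured in C2C12 myoblasts or myotubes stably transfected with a CMV-driven LacZ construct, using the FDG β-gal assay. Compounds were tested in dose-response at 0.5, 1, 5, 10, 20 and 40 μM, with two replicates per point.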

Assay [3] relates to β-galactosidase in CMV-LacZ C2C12 myotubes. Description: CMV-LacZ secondary screen in C2C12 myotubes (β-Gal stabilizing assay). To be noted: for CMV-LACZ in Myotubes, signal relative to DMSO: C2C12 CMV-LacZ myotubes, fold relative to DMSO; for CMV-LACZ in Myotubes, value relative to DMSO: SU9516 analogs, C2C12 CMV-LacZ, N=2. In short, it runs like this:
as §1

In assay [4] the test system is α7 integrin (LacZ reporter in α7βgal+/− myoblasts). Description: Myoblast α7+/LacZ integrin FDG assay (Burkin assay in myoblasts, 96-well). Conditions: 96-well; for Burkin Assay in Myoblasts, signal relative to DMSO: α7+/LacZ myoblasts; for Burkin Assay in Myoblasts, value relative to DMSO: SU9516 analogs, N=3-6.

As to `COc1ccc(CCNC(=O)Cn2nnc(C(=O)Nc3ccc(Br)cc3)c2N)cc1OC` [MLS000912699-01], the “Burkin Assay in Myotubes, α7 integrin LacZ reporter signal relative to DMSO” value in assay [1] (0.5 uM) turned out to be 1.175; in assay [1] (1 uM), 0.9376; in assay [1] (5 uM), 0.9252; in assay [1] (10 uM), 0.939; in assay [1] (20 uM) it was 0.5217; in assay [1] (40 uM), 0.6518. Further, the “CMV-LACZ in Myoblasts (β-galactosidase activity relative to DMSO)” value is reported as 0.7147 in assay [2] (0.5 uM); 0.8744 in assay [2] (1 uM); 0.9111 in assay [2] (5 uM); 1.0462 in assay [2] (10 uM); 0.8826 in assay [2] (20 uM); 0.5204 in assay [2] (40 uM). Also, the “CMV-LACZ in Myotubes, signal relative to DMSO” value is listed as 0.8089 in assay [3] (0.5 uM); 0.9859 in assay [3] (1 uM); 0.9419 in assay [3] (5 uM); 1.1310 in assay [3] (10 uM); 0.9235 in assay [3] (20 uM); 0.5365 in assay [3] (40 uM). Also, the “Burkin Assay in Myoblasts, signal relative to DMSO” value in assay [4] (0.5 uM) was 1.115; in assay [4] (1 uM), 1.038; in assay [4] (5 uM), 0.9322; in assay [4] (10 uM) it was 0.9298; in assay [4] (20 uM), 0.6724; in assay [4] (40 uM), 0.4392.
Turning to `CCCN(C(=O)c1ccc(S(=O)(=O)N2CCCC2)cc1)C1CCS(=O)(=O)C1` (stereo not drawn) [MLS002161853-01], the “Burkin Assay in Myotubes, α7 integrin LacZ reporter signal relative to DMSO” value in assay [1] (0.5 uM) turned out to be 0.8761; in assay [1] (1 uM), 0.8092; in assay [1] (5 uM) it was 0.9889; in assay [1] (10 uM) it was 1.16; in assay [1] (20 uM) it was 0.919; in assay [1] (40 uM), 0.9353. The “CMV-LACZ in Myoblasts (β-galactosidase activity relative to DMSO)” value is reported as 1.0131 in assay [2] (0.5 uM); 0.8734 in assay [2] (1 uM); 0.8819 in assay [2] (5 uM); 0.9436 in assay [2] (10 uM); 1.0922 in assay [2] (20 uM); 0.9348 in assay [2] (40 uM). Also, the “CMV-LACZ in Myotubes, signal relative to DMSO” value in assay [3] (0.5 uM) amounted to 1.0524; in assay [3] (1 uM) it was 0.8352; in assay [3] (5 uM), 1.1122; in assay [3] (10 uM), 0.9103; in assay [3] (20 uM), 1.2341; in assay [3] (40 uM), 1.0647. In addition, the “Burkin Assay in Myoblasts, signal relative to DMSO” value was found to be 0.8569 in assay [4] (0.5 uM); 0.8278 in assay [4] (1 uM); 0.9386 in assay [4] (5 uM); 1.1978 in assay [4] (10 uM); 1.073 in assay [4] (20 uM); 0.9354 in assay [4] (40 uM).
Take `CCOC(=O)C1(Cc2cccc(Cl)c2)CCCN(C(=O)CCSC)C1` (stereo not drawn) [MLS001000299-01]: the “Burkin Assay in Myotubes, α7 integrin LacZ reporter signal relative to DMSO” value is 0.9225 in assay [1] (0.5 uM); 1.006 in assay [1] (1 uM); 0.8764 in assay [1] (5 uM); 0.9163 in assay [1] (10 uM); 0.793 in assay [1] (20 uM); 0.5578 in assay [1] (40 uM). Besides, the “CMV-LACZ in Myoblasts (β-galactosidase activity relative to DMSO)” value in assay [2] (0.5 uM) came out at 1.4188; in assay [2] (1 uM) it was 1.2745; in assay [2] (5 uM), 0.9901; in assay [2] (10 uM) it was 0.8248; in assay [2] (20 uM) it was 1.1522; in assay [2] (40 uM), 1.0107. For the same compound, the “CMV-LACZ in Myotubes, signal relative to DMSO” value is listed as 0.6411 in assay [3] (0.5 uM); 1.3158 in assay [3] (1 uM); 1.0658 in assay [3] (5 uM); 0.9029 in assay [3] (10 uM); 0.9544 in assay [3] (20 uM); 1.0744 in assay [3] (40 uM). The “Burkin Assay in Myoblasts, signal relative to DMSO” value in assay [4] (0.5 uM) was 1.089; in assay [4] (1 uM), 0.9953; in assay [4] (5 uM), 0.9552; in assay [4] (10 uM), 0.975; in assay [4] (20 uM), 0.9397; in assay [4] (40 uM) it was 0.7738.
Consider `CCO/C(C)=C1\C(=O)Nc2ccccc21` [MLS000554109-01], for which the “Burkin Assay in Myotubes, value relative to DMSO” value in assay [1] (0.5 uM) is 0.8839; in assay [1] (1 uM), 1.054; in assay [1] (5 uM), 0.9611; in assay [1] (10 uM) it was 0.9874; in assay [1] (20 uM) it was 0.8426; in assay [1] (40 uM), 1.048. The “CMV-LACZ in Myoblasts, value relative to DMSO” value is given as 1.1083 in assay [2] (0.5 uM); 1.1863 in assay [2] (1 uM); 0.9003 in assay [2] (5 uM); 0.9457 in assay [2] (10 uM); 0.9853 in assay [2] (20 uM); 0.9650 in assay [2] (40 uM). The “CMV-LACZ in Myotubes, value relative to DMSO” value in assay [3] (0.5 uM) stood at 1.2682; in assay [3] (1 uM) it was 0.9491; in assay [3] (5 uM) it was 1.1559; in assay [3] (10 uM), 1.1355; in assay [3] (20 uM), 0.9100; in assay [3] (40 uM), 0.9950. In addition, the “Burkin Assay in Myoblasts, value relative to DMSO” value was 0.9929 in assay [4] (0.5 uM); 1.049 in assay [4] (1 uM); 1.067 in assay [4] (5 uM); 1.095 in assay [4] (10 uM); 0.9611 in assay [4] (20 uM); 0.8937 in assay [4] (40 uM).
Consider `COc1ccc(OC)c(S(=O)(=O)Nc2c(NC3CCCCC3)c3ccccc3oc2=O)c1` [MLS001095705-01], for which the “Burkin Assay in Myotubes, α7 integrin LacZ reporter signal relative to DMSO” value is reported as 0.9916 in assay [1] (0.5 uM); 0.9463 in assay [1] (1 uM); 1.073 in assay [1] (5 uM); 0.8798 in assay [1] (10 uM); 0.9411 in assay [1] (20 uM); 0.7937 in assay [1] (40 uM). Moreover, the “CMV-LACZ in Myoblasts (β-galactosidase activity relative to DMSO)” value is given as 1.2060 in assay [2] (0.5 uM); 1.2293 in assay [2] (1 uM); 0.6476 in assay [2] (5 uM); 0.7229 in assay [2] (10 uM); 1.1400 in assay [2] (20 uM); 1.1723 in assay [2] (40 uM). Also, the “CMV-LACZ in Myotubes, signal relative to DMSO” value amounted to 0.9486 in assay [3] (0.5 uM); 0.9933 in assay [3] (1 uM); 1.1898 in assay [3] (5 uM); 1.3164 in assay [3] (10 uM); 1.2020 in assay [3] (20 uM); 1.0800 in assay [3] (40 uM). In addition, the “Burkin Assay in Myoblasts, signal relative to DMSO” value amounted to 0.7873 in assay [4] (0.5 uM); 0.8788 in assay [4] (1 uM); 1.295 in assay [4] (5 uM); 0.969 in assay [4] (10 uM); 0.7917 in assay [4] (20 uM); 0.7284 in assay [4] (40 uM).

The values are drawn from US9980943B2, “Methods of treating muscular dystrophy” (BOARD OF REGENTS OF THE NEVADA SYSTEM OF HIGHER EDUCATION, …, priority 2013, dated 2018).
